Results taken from PubChem BioAssay (NCI).
“And” between values parts separate entries of the source, which are not always exact repeats. Equal entries are not always repeated.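 Assay format: 96-well plates, 48-hour exposure. GI50 is the concentration that inhibits growth by half. TGI is the concentration that stops growth completely.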

test system: HS 578T breast; assay: NCI tumour cell line growth inhibition, 48 h

Row | SMILES | GI50 | TGI
1 | CC[C@@H](c1ccc(O)c(O)c1)[C@@H](CC)c1ccc(O)c(O)c1 | 73.3 µM | > 100 µM
2 | O=C1OCC2=C1C(c1cccc(Br)c1)c1cc3c(cc1N2CCO)OCCO3 (stereo not given) | 0.0715 µM | > 21.3 µM
3 | COc1cc(-c2nc3sccn3c2-c2ccnc(NCCNS(=O)(=O)c3ccc(F)cc3)n2)ccc1F | 1.88 µM | > 100 µM
4 | O=C1CSC(=S)N1/N=C/c1ccc(Cl)c([N+](=O)[O-])c1 |  | > 100 µM
5 | Cn1cc(-c2cc3c(N4CCN(c5ncc([C@@](C)(N)c6ccc(F)cc6)cn5)CC4)ncnn3c2)cn1 | 1.82 µM | > 100 µM
6 | CCCCCCCCCCSC(=N)N (tested in a mixture with another compound) | 8.03 µM | 29.5 µM
7 | CCOc1ccc(NC2=CC(=O)C(=O)c3ccccc32)cc1 |  | 5.9 µM
8 | O=C1c2ccccc2C(=O)c2c(/C=C\N3CCCCC3)ccnc21 |  | 4.32 µM
9 | C=C1C[C@H](O)[C@H](Br)C(C)(C)[C@@]12CCC(C)=C(Cl)C2 | 0.289 µM | 2.98 µM
10 | O=C(NC1CCCCC1)NS(=O)(=O)c1ccc(N2N=C3c4ccccc4CC3C2c2ccc(Cl)cc2)cc1 (stereo not given) | 4.61 µM | 37.2 µM
11 | c1ccc(-c2n(Cc3ccc4ccccc4n3)cc[n+]2Cc2ccc3ccccc3c2)cc1 | 1.94 µM | 6.31 µM
12 | C[C@@H]1CC[C@H]2C(C)(C)[C@H]3C[C@@]12CC[C@@]3(C)O |  | > 100 µM
13 | O=C(Nc1cccc(C(F)(F)F)c1)Nc1cccc(C(F)(F)F)c1 | 2.25 µM | 12.5 µM
14 | CCOC(=O)n1cc(C2=C(c3ccc(OC)c(OC)c3)COC2=O)c2ccccc21 | 0.087 µM | > 100 µM
15 | CC(=C(c1ccc(OCCN2CCCCC2)cc1)c1ccc(OCCN2CCCCC2)cc1)c1ccc(Cl)cc1 | 0.458 µM | 1.04 µM
16 | C=C(C)C(=O)O[C@@H]1C[C@@]2(C)O[C@@H]2C[C@H](O)/C(C)=C/[C@H]2OC(=O)C(=C)[C@@H]21 |  | > 100 µM
17 | C=CC(=O)Nc1cc(Nc2nccc(-c3cn(C)c4ccccc34)n2)c(OC)cc1N(C)CCN(C)C | 3.32 µM and 1.89 µM | 16 µM and 9.69 µM
18 | CC(=O)OC1(C)N=NC2(CCCCC2)O1 (stereo not given) |  | > 100 µM
19 | C=C1C(=O)O[C@H]2[C@H]1CC/C(CNC(=O)c1cc3ccccc3[nH]1)=C\CC[C@@]1(C)O[C@@H]21 | 6.62 µM | 38.7 µM
20 | Cc1cc2c(cc1C)[n+](=O)c(C(=O)c1ccccc1)c(C(F)F)n2[O-] | 32 µM | > 100 µM
21 | COc1cc2c(cc1OC)C(Cl)C(c1ccc(F)cc1)=C2Cl (stereo not given) |  | > 100 µM
22 | CN(C)c1ccc(/C=N/NC(=S)Nc2ccccc2)cc1 |  | > 100 µM
23 | COc1ccc2ncnc(Nc3ccc(OCc4ccccc4)cc3)c2c1 | 10.2 µM | > 25 µM
24 | O=C1c2c(F)c(F)c(F)c(F)c2C(=O)N1c1ccc(F)cc1F | 35.5 µM | > 100 µM
25 | CC(C)[C@@H]1NC(=O)[C@]2(C)CSC(=N2)c2ccnc(c2)CNC(=O)C[C@@H](/C=C/CCS)OC1=O | 0.0407 µM | 
26 | OC(c1cc(C(F)(F)F)nc2c(C(F)(F)F)cccc12)C1CCCCN1 (stereo not given) | 3.8 µM | 19.5 µM
27 | C/C=C/[C@@H]1O[C@@H]2COC(=O)C2=C[C@@H]1O | 23.4 µM | 58.2 µM

test system: IGROV1 ovarian; assay: NCI tumour cell line growth inhibition, 48 h

Row | SMILES | GI50 | TGI
28 | CC[C@@H](c1ccc(O)c(O)c1)[C@@H](CC)c1ccc(O)c(O)c1 | 9.57 µM | 85.5 µM
29 | O=C1OCC2=C1C(c1cccc(Br)c1)c1cc3c(cc1N2CCO)OCCO3 (stereo not given) | 0.117 µM | > 43.8 µM
30 | COc1cc(-c2nc3sccn3c2-c2ccnc(NCCNS(=O)(=O)c3ccc(F)cc3)n2)ccc1F | 1.69 µM | > 100 µM
31 | O=C1CSC(=S)N1/N=C/c1ccc(Cl)c([N+](=O)[O-])c1 |  | > 100 µM
32 | Cn1cc(-c2cc3c(N4CCN(c5ncc([C@@](C)(N)c6ccc(F)cc6)cn5)CC4)ncnn3c2)cn1 | 2.7 µM | > 100 µM
33 | CCCCCCCCCCSC(=N)N (tested in a mixture with another compound) | 5.2 µM | 18.9 µM
34 | CCOc1ccc(NC2=CC(=O)C(=O)c3ccccc32)cc1 |  | 16.9 µM
35 | O=C1c2ccccc2C(=O)c2c(/C=C\N3CCCCC3)ccnc21 |  | 36.8 µM
36 | C=C1C[C@H](O)[C@H](Br)C(C)(C)[C@@]12CCC(C)=C(Cl)C2 | 0.25 µM | 11.7 µM
37 | O=C(NC1CCCCC1)NS(=O)(=O)c1ccc(N2N=C3c4ccccc4CC3C2c2ccc(Cl)cc2)cc1 (stereo not given) | 5.98 µM | 25.5 µM
38 | c1ccc(-c2n(Cc3ccc4ccccc4n3)cc[n+]2Cc2ccc3ccccc3c2)cc1 | 0.783 µM | 2.43 µM
39 | C[C@@H]1CC[C@H]2C(C)(C)[C@H]3C[C@@]12CC[C@@]3(C)O |  | > 100 µM
40 | O=C(Nc1cccc(C(F)(F)F)c1)Nc1cccc(C(F)(F)F)c1 | 0.868 µM | 10.3 µM
41 | CCOC(=O)n1cc(C2=C(c3ccc(OC)c(OC)c3)COC2=O)c2ccccc21 | 0.0555 µM | > 100 µM
42 | CC(=C(c1ccc(OCCN2CCCCC2)cc1)c1ccc(OCCN2CCCCC2)cc1)c1ccc(Cl)cc1 | 0.432 µM | 0.82 µM
43 | C=C(C)C(=O)O[C@@H]1C[C@@]2(C)O[C@@H]2C[C@H](O)/C(C)=C/[C@H]2OC(=O)C(=C)[C@@H]21 |  | > 100 µM
44 | C=CC(=O)Nc1cc(Nc2nccc(-c3cn(C)c4ccccc34)n2)c(OC)cc1N(C)CCN(C)C | 1.14 µM and 0.407 µM | 7.58 µM and 2.68 µM
45 | CC(=O)OC1(C)N=NC2(CCCCC2)O1 (stereo not given) |  | > 100 µM
46 | C=C1C(=O)O[C@H]2[C@H]1CC/C(CNC(=O)c1cc3ccccc3[nH]1)=C\CC[C@@]1(C)O[C@@H]21 | 1.32 µM | 5.4 µM
47 | Cc1cc2c(cc1C)[n+](=O)c(C(=O)c1ccccc1)c(C(F)F)n2[O-] | 15.1 µM | > 100 µM
48 | COc1cc2c(cc1OC)C(Cl)C(c1ccc(F)cc1)=C2Cl (stereo not given) |  | 37.2 µM
49 | CN(C)c1ccc(/C=N/NC(=S)Nc2ccccc2)cc1 |  | > 100 µM
50 | COc1ccc2ncnc(Nc3ccc(OCc4ccccc4)cc3)c2c1 | 6.61 µM | > 22.2 µM
51 | O=C1c2c(F)c(F)c(F)c(F)c2C(=O)N1c1ccc(F)cc1F | 6.54 µM | 19.3 µM
52 | CC(C)[C@@H]1NC(=O)[C@]2(C)CSC(=N2)c2ccnc(c2)CNC(=O)C[C@@H](/C=C/CCS)OC1=O | 0.159 µM | 2.43 µM
53 | OC(c1cc(C(F)(F)F)nc2c(C(F)(F)F)cccc12)C1CCCCN1 (stereo not given) | 2.21 µM | 5.58 µM
54 | C/C=C/[C@@H]1O[C@@H]2COC(=O)C2=C[C@@H]1O | 18.6 µM | > 84 µM

test system: MDA-MB-231 breast; assay: NCI tumour cell line growth inhibition, 48 h

Row | SMILES | GI50 [µM] | TGI [µM]
55 | CC[C@@H](c1ccc(O)c(O)c1)[C@@H](CC)c1ccc(O)c(O)c1 | 12 | 29.1
56 | O=C1OCC2=C1C(c1cccc(Br)c1)c1cc3c(cc1N2CCO)OCCO3 (stereo not given) | 0.209 | 2.85
57 | COc1cc(-c2nc3sccn3c2-c2ccnc(NCCNS(=O)(=O)c3ccc(F)cc3)n2)ccc1F | 2.35 | > 100
58 | O=C1CSC(=S)N1/N=C/c1ccc(Cl)c([N+](=O)[O-])c1 |  | 48
59 | Cn1cc(-c2cc3c(N4CCN(c5ncc([C@@](C)(N)c6ccc(F)cc6)cn5)CC4)ncnn3c2)cn1 | 4.77 | > 100
60 | CCCCCCCCCCSC(=N)N (tested in a mixture with another compound) | 1.8 | 4.22
61 | CCOc1ccc(NC2=CC(=O)C(=O)c3ccccc32)cc1 |  | 54.5
62 | O=C1c2ccccc2C(=O)c2c(/C=C\N3CCCCC3)ccnc21 |  | 73.3
63 | C=C1C[C@H](O)[C@H](Br)C(C)(C)[C@@]12CCC(C)=C(Cl)C2 | 0.345 | 2.33
64 | O=C(NC1CCCCC1)NS(=O)(=O)c1ccc(N2N=C3c4ccccc4CC3C2c2ccc(Cl)cc2)cc1 (stereo not given) | 12.8 | 31.2
65 | c1ccc(-c2n(Cc3ccc4ccccc4n3)cc[n+]2Cc2ccc3ccccc3c2)cc1 | 1.16 | 3.32
66 | C[C@@H]1CC[C@H]2C(C)(C)[C@H]3C[C@@]12CC[C@@]3(C)O |  | > 100
67 | O=C(Nc1cccc(C(F)(F)F)c1)Nc1cccc(C(F)(F)F)c1 | 1.47 | 3.29
68 | CCOC(=O)n1cc(C2=C(c3ccc(OC)c(OC)c3)COC2=O)c2ccccc21 | 0.16 | > 100
